Measured values as given in patent publication US20080312271A1, “AZABENZIMIDAZOLYL COMPOUNDS” (Pfizer Inc., priority 2006, published 2008).
pEC50: −log10 of the molar value.

molecular target: T1, mGluR2 receptor (metabotropic glutamate receptor 2) (Homo sapiens, UniProt Q14416); assay: mGluR2 Potentiator Screen, FLIPR, EC10-EC20 glutamate challenge; format: cell-based; conditions: not given
T1 construct: expressed in transfected cells
Description: Procedure for mGluR2 Potentiator Screen NLB methods EC10-EC20 Challenge Cell Culture and Plating:
Cells used for this screen are HEK cells stably transfected with the mGluR2 receptor (metabotropic glutamate receptor 2) and the Gα15 G protein. Clones were identified by functional activity (FLIPR). Cells are grown in growth media containing: DMEM High Glucose with Glutamine and Na Pyruvate (GIBCO), 10% (v/v) Heat inactivate FBS (GIBCO), G418 500 ug/ml (from 50 mg/ml stock) (GIBCO) and Blasticidin 3 ug/ml (from 5 mg/ml stock made in H2O) (Invitrogen).
2 days before the assay cell are trypsinized with 0.25% trysin/EDTA (GIBCO), spun down at 1000 rpm for 5 minutes, resuspended in growth media and plated on polystyrene 384 well black wall 1 clear bottom poly-D-lysine coated plates at a density of approximately 18,000 cells/well in a volume of 50 μL per well. One day before the assay the growth media is removed from the plates by flicking, and replaced with media containing DMEM High Glucose without Glutamine and Na Pyruvate (GIBCO) and 10% (v/v) dialyzed FBS (GIBCO). The reason for the removal of glutamine the day before the assay is to minimize the amount of glutamate that will be present during the assay, as endogenous glutarnate released from the cells can reduce the fluorescent response and interfere with the FLIPR screen.
FLIPR Methods and Data Analysis:
On the day of the assay, the FLIPR assay is performed using the following methods.
The pH is adjusted to 7.4 with 1 M NaOH. Prepare a 2 mM (approx.) stock solution of Fluo-4,am (Molecular Probes) dye in DMSO-22 μl DMSO per 50 ug vial (440 μL per 1 mg vial). Make a 1 mM (approx.) flou-4, PA working solution per vial by adding 22 μl of 20% pluronic acid (PA), (Molecular Probes) in DMSO to each 50 ug vial (440 μL per 1 mg vial). Prepare a 250 mM Probenecid (Sigma) stock solution by dissolving 0.71 g into 5 ml 1N NaOH and 5 ml assay buffer (for each liter of assay wash buffer)L Make 4 uM (approx.) dye incubation media by adding […] per 11 ml DMEM high glucose without glutamine (220 ml per 1 mg vial). Add 110 μL probenecid stock per 11 ml (2.5 mM final [concentration]). To the dye media add 3 units/ml of glutamic-pyruvic transaminase (GPT, Sigma) and 3 mM Na Pyruvate. The assay has worked with dye concentrations from 2 uM to 8 uM dye as well. To the assay buffer from drug preparation, add 1.83 mls DMSO and 400 μL 15.8% P104 (from New Leads biology) per liter for final concentrations of 0.18% DMSO and 0.006% P104. To the assay buffer for cell washing, add probenecid in the same manner and concentration that was used for the dye media.
Remove growth media from cell plates by flicking. Add 50 μl/well dye solution. Incubate 1 hour at 37° C. and 5% CO2. Remove dye solution and wash 3 times with assay buffer+probenecid (100 μl probenecid stock per 10 ml buffer), leaving 30 μL/well assay buffer. Wait at least 10-15 minutes. Compounds and agonist challenge additions are performed with the FLIPR. The 1st addition is for test compounds, which are added as 15 μL of 4×[concentration] of potentiator. The second 2nd addition is 15 μL of 4×[concentration] of agonist or challenge. This achieves 1× concentration of all compounds only after 2nd addition. The 1st and 2nd additions are performed separately using the FLIPR, which give 2 different data files. Compounds are pretreated at least 30 minutes before agonist addition,
Results are analyzed by dividing the peak fluorescent value of the FLIPR response by the […] to achieve a ratio response. The ratios are then analyzed by curve fitting programs. […] Maximum values for dose response curves (forced fitting) are derived from standards on the plate.
Compound Preparation and Glutamate Challenge:
Compounds are delivered as 10 mM DMSO stocks or as powders, Powders are solubilized in DMSO at 10 mM (as solubility allows). Compounds are sonicated in a heated water bath (35-40° C.) for at least 20 minutes.

T1 sequence (Q14416 19-872, species assumed): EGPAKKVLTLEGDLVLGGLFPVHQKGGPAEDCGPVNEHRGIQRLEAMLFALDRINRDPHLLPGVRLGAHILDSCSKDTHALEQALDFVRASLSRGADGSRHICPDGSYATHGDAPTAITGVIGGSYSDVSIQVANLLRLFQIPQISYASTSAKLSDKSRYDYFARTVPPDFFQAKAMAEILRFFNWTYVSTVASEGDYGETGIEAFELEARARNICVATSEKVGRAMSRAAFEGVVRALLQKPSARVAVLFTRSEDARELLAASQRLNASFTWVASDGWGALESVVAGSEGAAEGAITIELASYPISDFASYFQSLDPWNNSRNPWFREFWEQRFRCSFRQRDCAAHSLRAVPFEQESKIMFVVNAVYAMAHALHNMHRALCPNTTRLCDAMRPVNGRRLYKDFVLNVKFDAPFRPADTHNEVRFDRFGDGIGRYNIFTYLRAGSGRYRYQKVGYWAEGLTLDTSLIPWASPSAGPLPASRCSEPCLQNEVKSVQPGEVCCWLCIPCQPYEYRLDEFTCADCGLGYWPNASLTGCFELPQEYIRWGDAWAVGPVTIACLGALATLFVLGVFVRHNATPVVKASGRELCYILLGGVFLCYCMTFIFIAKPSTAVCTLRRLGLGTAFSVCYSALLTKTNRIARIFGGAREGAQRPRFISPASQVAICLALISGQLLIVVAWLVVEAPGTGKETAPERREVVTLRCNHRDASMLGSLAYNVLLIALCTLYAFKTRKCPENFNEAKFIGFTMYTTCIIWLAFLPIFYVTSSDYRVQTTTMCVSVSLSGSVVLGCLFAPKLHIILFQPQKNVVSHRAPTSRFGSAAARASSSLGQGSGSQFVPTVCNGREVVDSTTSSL

| pEC50 | SMILES |
| --- | --- |
| 7.33 | C[C@@H]1CN(Cc2nc3nccc4c3n2CCC4)CC[C@@H]1c1ccc(F)cc1F (relative stereo) [Example 127, 2-{[Cis-4-(2,4-difluorophenyl)-3-methylpiperidin-1-yl]methyl}-5,6-dihydro-4H-imidazo[4,5,1-ij]-1,7-naphthyridine] |
| 6.87 | C[C@@H]1CN(Cc2nc3nccc4c3n2CCC4)CC[C@@H]1c1ccc(F)c(Cl)c1 (relative stereo) [Example 128, 2-{[Cis-4-(3-chloro-4-fluorophenyl)-3-methylpiperidin-1-yl]methyl}-5,6-dihydro-4H-imidazo[4,5,1-ij]-1,7-naphthyridine] |
| 7.90 | C[C@@H]1CN(Cc2nc3nccc4c3n2CCC4)CC[C@@H]1c1ccc(Cl)cc1F (relative stereo) [Example 129, 2-{[Cis-4-(4-chloro-2-fluorophenyl)-3-methylpiperidin-1-yl]methyl}-5,6-dihydro-4H-imidazo[4,5,1-ij]-1,7-naphthyridine] |
| 7.52 | COc1cc(F)ccc1[C@H]1CCN(Cc2nc3nccc4c3n2CCC4)C[C@H]1C (relative stereo) [Example 134, 2-{[Cis-4-(4-fluoro-2-methoxyphenyl)-3-methylpiperidin-1-yl]methyl}-5,6-dihydro-4H-imidazo[4,5,1-ij]-1,7-naphthyridine] |
| 7.12 | C[C@@H]1CN(Cc2nc3cnccc3n2C)CC[C@@H]1c1ccc(C(F)(F)F)cc1 (relative stereo) [compound 71] |
| 6.69 | C[C@@H]1CN(Cc2nc3ncccc3n2C)CC[C@@H]1c1ccc(F)c(Cl)c1 (relative stereo) [compound 111] |
| 7.37 | COc1cc(C(F)(F)F)ccc1[C@H]1CCN(Cc2nc3ncccc3n2C)C[C@H]1C (relative stereo) [compound 114] |
| 7.71 | C[C@@H]1CN(Cc2nc3ncccc3n2C)CC[C@@H]1c1ccc(Cl)cc1F (relative stereo) [compound 115] |
| 7.30 | C[C@@H]1CN(Cc2nc3cnccc3n2C)CC[C@@H]1c1ccc(Cl)cc1F (relative stereo) [compound 116] |
| 6.19 | CCOc1ccc([C@H]2CCN(Cc3nc4ncccc4n3C)C[C@H]2C)cc1 (relative stereo) [compound 120] |
| 6.12 | C[C@@H]1CN(Cc2nc3ncccc3n2C)CC[C@@H]1c1ccc(F)c(F)c1 (relative stereo) [compound 121] |
| 6.93 | C[C@@H]1CN(Cc2nc3ncccc3n2C)CC[C@@H]1c1ccc(F)cc1F (relative stereo) [compound 124] |
| 4.99 | C[C@@H]1CN(Cc2nc3cnccc3n2C)CC[C@@H]1c1ccc(F)cc1F (relative stereo) [compound 125] |
| 7.11 | COc1cc(F)ccc1[C@H]1CCN(Cc2nc3ncccc3n2C)C[C@H]1C (relative stereo) [compound 132] |
| 7.27 | COc1cc(F)ccc1[C@H]1CCN(Cc2nc3cnccc3n2C)C[C@H]1C (relative stereo) [compound 133] |
| 7.26 | C[C@@H]1CN(Cc2nc3cnccc3n2C)CC[C@@H]1c1ccc(OC(F)(F)F)cc1F (relative stereo) [compound 146] |
| 7.38 | C[C@@H]1CN(Cc2nc3ncccc3n2C)CC[C@@H]1c1ccc(C(F)(F)F)c(F)c1 (relative stereo) [compound 147] |
| 7.15 | C[C@@H]1CN(Cc2nc3cnccc3n2C)CC[C@@H]1c1ccc(C(F)(F)F)c(F)c1 (relative stereo) [compound 148] |
| 7.61 | C[C@@H]1CN(Cc2nc3ncccc3n2C)CC[C@@H]1c1ccc(C(F)(F)F)cc1C(F)(F)F (relative stereo) [compound 149] |
| 6.68 | C[C@@H]1CN(Cc2nc3cnccc3n2C)CC[C@@H]1c1ccc(C(F)(F)F)cc1C(F)(F)F (relative stereo) [compound 150] |
| 7.52 | C[C@@H]1CN(Cc2nc3ncccc3n2C)CC[C@@H]1c1ccc(C(F)(F)F)cc1Cl (relative stereo) [compound 151] |
| 7.18 | C[C@@H]1CN(Cc2nc3cnccc3n2C)CC[C@@H]1c1ccc(C(F)(F)F)cc1Cl (relative stereo) [compound 152] |

| pEC50 | SMILES |
| --- | --- |
| 7.64 | C[C@@H]1CN(Cc2nc3ncccc3n2C)CC[C@@H]1c1ccc(Cl)cc1Cl (relative stereo) [compound 155] |
| 7.05 | C[C@@H]1CN(Cc2nc3cnccc3n2C)CC[C@@H]1c1ccc(Cl)cc1Cl (relative stereo) [compound 156] |
| 6.56 | C[C@@H]1CN(Cc2nc3ncccc3n2C)CC[C@@H]1c1ccc(OC(F)(F)F)cc1 (relative stereo) [compound 157] |
| 6.58 | C[C@@H]1CN(Cc2nc3cnccc3n2C)CC[C@@H]1c1ccc(OC(F)(F)F)cc1 (relative stereo) [compound 158] |
| 6.99 | Cc1cc(Cl)ccc1[C@H]1CCN(Cc2nc3ncccc3n2C)C[C@H]1C (relative stereo) [compound 160] |
| 6.41 | Cc1cc(Cl)ccc1[C@H]1CCN(Cc2nc3cnccc3n2C)C[C@H]1C (relative stereo) [compound 161] |
| > 7.13 | Cc1cc(OC(F)(F)F)ccc1[C@H]1CCN(Cc2nc3ncccc3n2C)C[C@H]1C (relative stereo) [compound 164] |
| 6.29 | Cc1cc(OC(F)(F)F)ccc1[C@H]1CCN(Cc2nc3cnccc3n2C)C[C@H]1C (relative stereo) [compound 165] |
| 7.08 | CC(C)Oc1ccc([C@H]2CCN(Cc3nc4ncccc4n3C)C[C@H]2C)c(F)c1 (relative stereo) [compound 166] |
| < 6.76 | CC(C)Oc1ccc([C@H]2CCN(Cc3nc4cnccc4n3C)C[C@H]2C)c(F)c1 (relative stereo) [compound 167] |
| 6.76 | CC(C)Oc1ccc([C@H]2CCN(Cc3nc4ncccc4n3C)C[C@H]2C)c(Cl)c1 (relative stereo) [compound 169] |
| 6.55 | CC(C)Oc1ccc([C@H]2CCN(Cc3nc4cnccc4n3C)C[C@H]2C)c(Cl)c1 (relative stereo) [compound 170] |
| 6.67 | COc1ccc([C@H]2CCN(Cc3nc4ncccc4n3C)C[C@H]2C)c(C(F)(F)F)c1 (relative stereo) [compound 173] |
| < 5.77 | COc1ccc([C@H]2CCN(Cc3nc4cnccc4n3C)C[C@H]2C)c(C(F)(F)F)c1 (relative stereo) [compound 174] |
| 6.37 | C[C@@H]1CN(Cc2nc3ncccc3n2C)CC[C@@H]1c1ccc(OC(F)F)cc1 (relative stereo) [compound 177] |
| < 5.87 | C[C@@H]1CN(Cc2nc3cnccc3n2C)CC[C@@H]1c1ccc(OC(F)F)cc1 (relative stereo) [compound 178] |
| 6.42 | C[C@@H]1CN(Cc2nc3ncccc3n2C)CC[C@@H]1c1cc(F)c(F)cc1F (relative stereo) [compound 179] |
| 6.12 | C[C@@H]1CN(Cc2nc3cnccc3n2C)CC[C@@H]1c1cc(F)c(F)cc1F (relative stereo) [compound 180] |
| 5.96 | CC(C)Oc1ccc([C@H]2CCN(Cc3nc4cnccc4n3C)C[C@H]2C)cc1F (relative stereo) [compound 181] |
| 6.24 | CC(C)Oc1ccc([C@H]2CCN(Cc3nc4ncccc4n3C)C[C@H]2C)cc1F (relative stereo) [compound 182] |
| 7.20 | C[C@@H]1CN(Cc2nc3ncccc3n2C)CC[C@@H]1c1ccc(OC(F)(F)F)cc1Cl (relative stereo) [compound 187] |

same assay, conditions: HEK cells stably transfected with mGluR2 and Gα15; FLIPR (Fluo-4); potentiation of an EC10 to EC20 concentration of glutamate; Table 9

| pEC50 | SMILES |
| --- | --- |
| 7.33 | C[C@@H]1CN(Cc2nc3nccc4c3n2CCC4)CC[C@@H]1c1ccc(F)cc1F (relative stereo) [Example 127, 2-{[Cis-4-(2,4-difluorophenyl)-3-methylpiperidin-1-yl]methyl}-5,6-dihydro-4H-imidazo[4,5,1-ij]-1,7-naphthyridine] |
| 6.87 | C[C@@H]1CN(Cc2nc3nccc4c3n2CCC4)CC[C@@H]1c1ccc(F)c(Cl)c1 (relative stereo) [Example 128, 2-{[Cis-4-(3-chloro-4-fluorophenyl)-3-methylpiperidin-1-yl]methyl}-5,6-dihydro-4H-imidazo[4,5,1-ij]-1,7-naphthyridine] |
| 7.90 | C[C@@H]1CN(Cc2nc3nccc4c3n2CCC4)CC[C@@H]1c1ccc(Cl)cc1F (relative stereo) [Example 129, 2-{[Cis-4-(4-chloro-2-fluorophenyl)-3-methylpiperidin-1-yl]methyl}-5,6-dihydro-4H-imidazo[4,5,1-ij]-1,7-naphthyridine] |
| 7.52 | COc1cc(F)ccc1[C@H]1CCN(Cc2nc3nccc4c3n2CCC4)C[C@H]1C (relative stereo) [Example 134, 2-{[Cis-4-(4-fluoro-2-methoxyphenyl)-3-methylpiperidin-1-yl]methyl}-5,6-dihydro-4H-imidazo[4,5,1-ij]-1,7-naphthyridine] |
